Results: ChEMBL document CHEMBL1157013, “Novel phospholipid analogues of pan-PPAR activator tetradecylthioacetic acid are more PPAR alpha selective” (Bioorg Med Chem Lett, 2010)
Activity calls are given as the source filed them.

Assays:
Type in all cases: cell-based
[1] = target: T1, Peroxisome proliferator-activated receptor alpha (Homo sapiens) (UniProt Q07869); experiment: Activation of PPARalpha expressed in human MCF7 cells at 10 uM by luciferase reporter gene assay
T1 sequence (whole entry): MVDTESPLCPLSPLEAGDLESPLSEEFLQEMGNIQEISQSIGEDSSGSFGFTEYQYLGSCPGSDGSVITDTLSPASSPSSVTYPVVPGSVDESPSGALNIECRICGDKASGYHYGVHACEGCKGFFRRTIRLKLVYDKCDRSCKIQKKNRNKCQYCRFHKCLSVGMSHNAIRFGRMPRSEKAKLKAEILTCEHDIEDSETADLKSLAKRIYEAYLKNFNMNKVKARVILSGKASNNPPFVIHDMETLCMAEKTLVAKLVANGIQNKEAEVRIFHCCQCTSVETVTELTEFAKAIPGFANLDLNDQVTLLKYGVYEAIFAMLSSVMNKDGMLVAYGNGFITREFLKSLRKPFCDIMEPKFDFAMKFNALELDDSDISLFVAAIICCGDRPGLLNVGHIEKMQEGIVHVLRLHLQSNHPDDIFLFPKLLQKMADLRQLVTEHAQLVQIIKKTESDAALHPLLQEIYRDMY

[2] = target: T1, Peroxisome proliferator-activated receptor alpha (Homo sapiens); experiment: Activation of PPARalpha expressed in human MCF7 cells at 30 uM by luciferase reporter gene assay
[3] = target: T2, Peroxisome proliferator-activated receptor delta (Homo sapiens) (UniProt Q03181); experiment: Activation of PPARdelta expressed in human MCF7 cells at 10 uM by luciferase reporter gene assay
T2 sequence (whole entry): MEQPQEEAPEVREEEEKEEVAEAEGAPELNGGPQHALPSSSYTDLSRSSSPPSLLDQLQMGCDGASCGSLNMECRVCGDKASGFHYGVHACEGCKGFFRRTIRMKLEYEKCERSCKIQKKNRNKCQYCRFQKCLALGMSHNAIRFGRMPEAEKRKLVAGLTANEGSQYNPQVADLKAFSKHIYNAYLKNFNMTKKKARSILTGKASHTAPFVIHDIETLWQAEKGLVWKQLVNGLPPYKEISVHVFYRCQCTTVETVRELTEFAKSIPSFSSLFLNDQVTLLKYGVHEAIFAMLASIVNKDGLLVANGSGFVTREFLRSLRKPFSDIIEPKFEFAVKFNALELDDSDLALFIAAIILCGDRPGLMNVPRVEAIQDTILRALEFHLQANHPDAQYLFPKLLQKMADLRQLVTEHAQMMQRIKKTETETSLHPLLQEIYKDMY

[4] = target: T2, Peroxisome proliferator-activated receptor delta (Homo sapiens); experiment: Activation of PPARdelta expressed in human MCF7 cells at 30 uM by luciferase reporter gene assay
[5] = target: T3, Peroxisome proliferator-activated receptor gamma (Homo sapiens) (UniProt P37231); experiment: Activation of PPARgamma expressed in human MCF7 cells at 10 uM by luciferase reporter gene assay
T3 sequence (whole entry): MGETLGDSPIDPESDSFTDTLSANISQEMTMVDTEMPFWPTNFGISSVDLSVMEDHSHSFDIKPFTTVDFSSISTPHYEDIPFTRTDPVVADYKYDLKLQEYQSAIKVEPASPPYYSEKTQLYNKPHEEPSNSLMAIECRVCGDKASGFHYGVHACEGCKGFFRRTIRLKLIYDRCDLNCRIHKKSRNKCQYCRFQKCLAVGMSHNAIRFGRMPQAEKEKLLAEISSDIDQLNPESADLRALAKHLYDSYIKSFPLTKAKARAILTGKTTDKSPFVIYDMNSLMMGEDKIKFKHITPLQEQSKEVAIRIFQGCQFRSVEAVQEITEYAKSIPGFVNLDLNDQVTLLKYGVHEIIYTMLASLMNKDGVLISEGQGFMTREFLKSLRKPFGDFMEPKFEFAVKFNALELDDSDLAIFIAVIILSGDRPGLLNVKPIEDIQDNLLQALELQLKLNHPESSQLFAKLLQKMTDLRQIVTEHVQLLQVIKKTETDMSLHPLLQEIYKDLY

[6] = target: T3, Peroxisome proliferator-activated receptor gamma (Homo sapiens); experiment: Activation of PPARgamma expressed in human MCF7 cells at 30 uM by luciferase reporter gene assay

Measured: Activity

CCCCCCCCCCCCCCSCC(=O)OC[C@H](COP(=O)(O)OCC(O)CO)OC(=O)CSCCCCCCCCCCCCCC (stereo not given in full)
active: all assays above

CCCCCCCCCCCCCCSCC(=O)OC[C@@H](O)COP(=O)([O-])OCC[N+](C)(C)C
active: all assays above

CCCCCCCCCCCCCCSCC(=O)O
active: [2] | [4] | [6]
